Bounds are passed on as bounds.

By Ki is commonly meant a dissociation constant, usually derived from enzyme kinetics or from competition with a known ligand.

The target in this test is T1, Dimer of Gag-Pol polyprotein [501-599,Q508K,L534I,L564I,C568A,C596A] (Human immunodeficiency virus 1, UniProt P03367, C568A/C596A/L534I/L564I/Q508K).
T1 construct: 501-599
As to the kind of experiment: Protease Inhibition Assay. The note with it: pH 6.4; 25 °C. How it is done:
The Ki values were determined using fluorogenic substrate, 2-(aminobenzoyl)-Thr-Ile-Nle-Phe(p-NO2)-Gln-ArgNH2. A standard curve relating changes in fluorescent intensity to changes in concentration of product was used to convert fluorescent changes into molar velocities. The amount of cleavage was determined by HPLC.
`CC(C)CN(C[C@@H](O)[C@H](Cc1ccccc1)NC(=O)O[C@H]1CO[C@H]2OCC[C@H]21)C1(C)C(=O)Nc2ccccc21` (stereo partly drawn) [(3R,3aS,6aR)-hexahydrofuro[2,3-b]furan-3-yl N-[(2S,3R)-3-hydroxy-4-[(3-methyl-2-oxo-2,3-dihydro-1H-indol-3-yl)(2-methylpropyl)amino]-1-phenylbutan-2-yl]carbamate] showed a Ki of 4.5 nM. The result for `CC(C)CN(C[C@@H](O)[C@H](Cc1ccccc1)NC(=O)O[C@H]1CO[C@H]2OCC[C@H]21)C1(C)C(=O)N(C)c2ccccc21` (stereo partly drawn) [(3R,3aS,6aR)-hexahydrofuro[2,3-b]furan-3-yl N-[(2S,3R)-4-[(1,3-dimethyl-2-oxo-2,3-dihydro-1H-indol-3-yl)(2-methylpropyl)amino]-3-hydroxy-1-phenylbutan-2-yl]carbamate] reads 51 nM. `O=C(N[C@@H](Cc1ccccc1)[C@H](O)CN1CCCCC12C(=O)Nc1ccccc12)O[C@H]1CO[C@H]2OCC[C@H]21` (stereo partly drawn) [(3R,3aS,6aR)-hexahydrofuro[2,3-b]furan-3-yl N-[(2S,3R)-4-{1,2-dihydrospiro[indole-3,2'-piperidine]-2-one}-3-hydroxy-1-phenylbutan-2-yl]carbamate] came in with a Ki of more than 1000 nM.

The compound `C=CCC1(N(CC(C)C)C[C@@H](O)[C@H](Cc2ccccc2)NC(=O)O[C@H]2CO[C@H]3OCC[C@H]32)C(=O)Nc2ccccc21` (stereo partly drawn) [(3R,3aS,6aR)-hexahydrofuro[2,3-b]furan-3-yl N-[(2S,3R)-3-hydroxy-4-[(2-methylpropyl)[2-oxo-3-(prop-2-en-1-yl)-2,3-dihydro-1H-indol-3-yl]amino]-1-phenylbutan-2-yl]carbamate] yielded a Ki of 4.5 nM. In other words, the single-digit nanomolar range. `O=C(N[C@@H](Cc1ccccc1)[C@H](O)CN1CC=CCCC12C(=O)Nc1ccccc12)O[C@H]1CO[C@H]2OCC[C@H]21` (stereo partly drawn) [(3R,3aS,6aR)-hexahydrofuro[2,3-b]furan-3-yl N-[(2S,3R)-4-{1',2',1,3,4,7-hexahydrospiro[azepine-2,3'-indole]-2'-one}-3-hydroxy-1-phenylbutan-2-yl]carbamate] showed a Ki of more than 1000 nM.

In the case of `O=C(N[C@@H](Cc1ccccc1)[C@H](O)CN1CCCCCC12C(=O)Nc1ccccc12)O[C@H]1CO[C@H]2OCC[C@H]21` (stereo partly drawn) [(3R,3aS,6aR)-hexahydrofuro[2,3-b]furan-3-yl N-[(2S,3R)-4-{1',2'-dihydrospiro[azepane-2,3'-indole]-2'-one}-3-hydroxy-1-phenylbutan-2-yl]carbamate], the Ki was more than 1000 nM. `COc1ccc2c(c1)C(C)(N(CC(C)C)C[C@@H](O)[C@H](Cc1ccccc1)NC(=O)O[C@H]1CO[C@H]3OCC[C@H]31)C(=O)N2` (stereo partly drawn) [(3R,3aS,6aR)-hexahydrofuro[2,3-b]furan-3-yl N-[(2S,3R)-3-hydroxy-4-[(5-methoxy-3-methyl-2-oxo-2,3-dihydro-1H-indol-3-yl)(2-methylpropyl)amino]-1-phenylbutan-2-yl]carbamate] showed a Ki of 116 nM.

The record behind these values is BindingDB's records for doi:10.1016/j.bmcl.2006.01.011 (Purdue University, 2006).
